Source: ChEMBL document CHEMBL1155914 (Bioorg Med Chem, 2008)

Tests used:
Acetylcholinesterase [1] = molecular target: T1, Acetylcholinesterase (Electrophorus electricus, UniProt O42275)
Description: Inhibition of Electrophorus electricus AChE by spectrophotometry

SH-SY5Y [2] = test: Antioxidant activity in human SH-SY5Y cells assessed as decrease in H2O2-induced reactive oxygen species generation at 0.3 uM by fluorescence method; assay type: functional; set-up: scale not given: the % may be the effect or the level left
Cholinesterase = Cholinesterase (Homo sapiens, UniProt P06276)
Chain of Cholinesterase (P06276 whole entry): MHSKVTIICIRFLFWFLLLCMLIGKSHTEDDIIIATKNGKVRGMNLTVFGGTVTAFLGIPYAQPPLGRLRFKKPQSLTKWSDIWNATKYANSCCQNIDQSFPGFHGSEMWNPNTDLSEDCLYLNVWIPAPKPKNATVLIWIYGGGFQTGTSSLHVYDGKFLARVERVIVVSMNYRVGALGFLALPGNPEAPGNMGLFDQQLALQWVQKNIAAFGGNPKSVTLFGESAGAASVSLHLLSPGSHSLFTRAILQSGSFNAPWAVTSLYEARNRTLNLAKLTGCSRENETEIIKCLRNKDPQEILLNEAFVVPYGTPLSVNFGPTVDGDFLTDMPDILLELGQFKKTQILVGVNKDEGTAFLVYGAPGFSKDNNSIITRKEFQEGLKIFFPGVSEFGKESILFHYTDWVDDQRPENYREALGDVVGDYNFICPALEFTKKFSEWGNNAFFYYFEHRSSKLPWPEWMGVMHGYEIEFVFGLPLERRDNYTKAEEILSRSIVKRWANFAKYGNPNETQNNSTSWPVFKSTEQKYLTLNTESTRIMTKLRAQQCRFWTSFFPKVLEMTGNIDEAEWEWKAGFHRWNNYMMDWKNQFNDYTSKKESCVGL
Description: Inhibition of human serum BuChE by Ellman's method

Acetylcholinesterase [3] = molecular target: T1, Acetylcholinesterase; remark: listed apart in the source
Description: Inhibition of Electrophorus electricus AChE by Ellman's method

SH-SY5Y [4] = test: cells; details: Homo sapiens, read-out: INH
Description: Inhibition of potassium chloride-induced cytosolic calcium levels in human SH-SY5Y cells at 0.3 uM by fluorescence method relative to control

Acetylcholinesterase [5] = molecular target: Acetylcholinesterase (Homo sapiens, UniProt P22303)
Chain of Acetylcholinesterase (Homo sapiens, UniProt P22303) (P22303 whole entry): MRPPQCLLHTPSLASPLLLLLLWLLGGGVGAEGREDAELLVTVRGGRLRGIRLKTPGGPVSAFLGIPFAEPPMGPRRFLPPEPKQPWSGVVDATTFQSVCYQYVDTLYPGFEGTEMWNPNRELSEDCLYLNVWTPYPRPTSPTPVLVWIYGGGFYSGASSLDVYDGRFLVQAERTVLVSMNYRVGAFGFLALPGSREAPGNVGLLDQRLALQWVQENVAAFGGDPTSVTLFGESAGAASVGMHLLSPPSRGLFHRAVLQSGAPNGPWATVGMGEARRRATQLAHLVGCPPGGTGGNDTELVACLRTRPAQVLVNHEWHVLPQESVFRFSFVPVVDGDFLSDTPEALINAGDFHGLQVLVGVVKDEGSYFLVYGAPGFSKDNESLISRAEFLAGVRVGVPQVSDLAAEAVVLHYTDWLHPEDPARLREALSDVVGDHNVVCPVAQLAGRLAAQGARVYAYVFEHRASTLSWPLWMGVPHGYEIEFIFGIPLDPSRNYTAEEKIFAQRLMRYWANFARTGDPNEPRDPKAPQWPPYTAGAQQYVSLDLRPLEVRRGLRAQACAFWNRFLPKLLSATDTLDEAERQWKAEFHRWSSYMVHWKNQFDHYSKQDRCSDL
Description: Inhibition of human erythrocyte AChE by Ellman's method

T1 sequence (O42275 whole entry): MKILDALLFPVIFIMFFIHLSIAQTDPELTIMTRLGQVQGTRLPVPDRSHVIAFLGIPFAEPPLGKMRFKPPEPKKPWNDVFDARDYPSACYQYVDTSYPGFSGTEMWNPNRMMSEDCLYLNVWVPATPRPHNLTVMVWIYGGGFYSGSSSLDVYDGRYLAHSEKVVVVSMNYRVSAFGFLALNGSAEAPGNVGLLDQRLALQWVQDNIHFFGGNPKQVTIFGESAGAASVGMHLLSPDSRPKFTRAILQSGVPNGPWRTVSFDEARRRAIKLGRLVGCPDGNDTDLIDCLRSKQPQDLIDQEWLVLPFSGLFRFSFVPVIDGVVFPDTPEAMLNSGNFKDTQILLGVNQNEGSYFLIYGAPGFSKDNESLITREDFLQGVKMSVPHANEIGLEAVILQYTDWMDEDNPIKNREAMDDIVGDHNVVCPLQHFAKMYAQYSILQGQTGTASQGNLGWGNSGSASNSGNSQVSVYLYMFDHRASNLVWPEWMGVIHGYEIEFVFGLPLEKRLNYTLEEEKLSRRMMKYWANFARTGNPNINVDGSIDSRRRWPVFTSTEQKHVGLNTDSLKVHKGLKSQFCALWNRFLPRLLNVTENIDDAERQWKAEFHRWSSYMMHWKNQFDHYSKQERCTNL

SMILES | IC50 (Acetylcholinesterase [1]) | Activity (SH-SY5Y [2]) | IC50 (Cholinesterase) | Ki (Acetylcholinesterase [3]) | inhibition at 0.3 µM (SH-SY5Y [4]) | IC50 (Acetylcholinesterase [5])
CCOC(=O)C1=C(C)Oc2nc3c(c(N)c2C1c1ccncc1)CCCC3 (centres undefined) | 3000 nM |  |  |  |  | 
CCOC(=O)c1c(C)nc2nc3c(c(N)c2c1-c1ccccc1)CCCC3 | 820 nM |  |  |  |  | 
CCOC(=O)c1c(C)nc2nc3c(c(N)c2c1-c1ccncc1)CCCC3 | 1400 nM |  |  |  |  | 
CCOC(=O)C1=C(C)Oc2nc3c(c(N)c2C1c1ccc(OC)cc1)CCCC3 (centres undefined) | 870 nM |  |  |  |  | 
CC1(C)CC(=O)C2=C(C1)Nc1nc3c(c(N)c1C2c1ccc(F)cc1)CCCC3 (centres undefined) | 540 nM | 95.7% | > 100000 nM | 106 nM | 32.9% | 1600 nM
COc1ccc(C2C3=C(CC(C)(C)CC3=O)Nc3nc4c(c(N)c32)CCCC4)cc1 (centres undefined) | 220 nM | 87.8% | > 100000 nM | 41.9 nM | 31% | 370 nM
CC1(C)CC(=O)C2=C(C1)Nc1nc3c(c(N)c1C2c1ccncc1)CCCC3 (centres undefined) | 600 nM | 82.9% | > 100000 nM | 157 nM | 45.1% | 2800 nM
CC1(C)CC(=O)C2=C(C1)Oc1nc3c(c(N)c1C2c1ccccc1)CCCC3 (centres undefined) | 49000 nM |  |  |  |  | 
Cc1ccc(C2C3=C(CC(C)(C)CC3=O)Oc3nc4c(c(N)c32)CCCC4)cc1 (centres undefined) | 52000 nM |  |  |  |  | 
CC1(C)CC(=O)C2=C(C1)Nc1nc3c(c(N)c1C2c1ccccc1)CCCC3 (centres undefined) | 320 nM | 87.9% | > 100000 nM | 61.3 nM | 24.6% | 710 nM
Cc1ccc(C2C3=C(CC(C)(C)CC3=O)Nc3nc4c(c(N)c32)CCCC4)cc1 (centres undefined) | 230 nM | 79.9% | > 100000 nM | 38.9 nM | 30.9% | 670 nM
CC1(C)CC(=O)C2=C(C1)Oc1nc3c(c(N)c1C2c1ccc(F)cc1)CCCC3 (centres undefined) | 70000 nM |  |  |  |  | 
COc1ccc(C2C3=C(CC(C)(C)CC3=O)Oc3nc4c(c(N)c32)CCCC4)cc1 (centres undefined) | 4100 nM |  |  |  |  | 
CC[N+](C)(CC)CCC[n+]1c(-c2ccccc2)c2cc(N)ccc2c2ccc(N)cc21 [PROPIDIUM] |  |  |  | 6800 nM |  | 
